pIC50: −log10 of the molar value. Calls of active or inactive are those of the source. No cut-off for these calls is given here.
Tests used:
Plasmodium falciparum [1] = test: Antimalarial activity against chloroquine-resistant Plasmodium falciparum K1 after 72 hrs by [3H]hypoxanthine incorporation assay; format: functional, organism-based
Trypanosoma cruzi = test: Antiparasitic activity against Trypanosoma cruzi Tulahuen C2C4 expressing beta-galactosidase infected in rat L6 cells after 96 hrs; format: functional, organism-based; conditions: Tulahuen C2C4, L6, 96 h
Plasmodium falciparum [2] = test: microbe, parasite or virus in culture; conditions: NF54
Description: Antimalarial activity against chloroquine-sensitive Plasmodium falciparum NF54 after 72 hrs by [3H]hypoxanthine incorporation assay

Leishmania donovani = test: Antiparasitic activity against Leishmania donovani MHOM/ET/67/L82 axenic amastigotes after 70 hrs by Alamar blue assay; format: functional, organism-based; conditions: MHOM/ET/67/L82, 70 h
[3] = system: Trypanosoma brucei rhodesiense; test: Antiparasitic activity against Trypanosoma brucei rhodesiense STIB900 bloodstream forms incubated for 70 hrs by Alamar blue assay; format: functional, organism-based; conditions: STIB900, 70 h
[4] = Selectivity index, ratio of IC50 for rat L6 cells to IC50 for chloroquine-sensitive Plasmodium falciparum NF54; format: toxicity, cell-based; conditions: read-out: Ratio IC50
[5] = Selectivity index, ratio of IC50 for rat L6 cells to IC50 for chloroquine-resistant Plasmodium falciparum K1; format: toxicity, cell-based; conditions: read-out: Ratio IC50
[6] = Toxicity against rat L6 cells after 72 hrs by Alamar blue assay; format: cell-based
Plasmodium berghei = test: Antimalarial activity against Plasmodium berghei ANKA infected in Swiss mouse assessed as reduction parasitaemia at 50 mg/kg, ip qd for 4 days measured 24 hrs after last treatment; format: functional
Mus musculus = test: Toxicity in Plasmodium berghei ANKA infected Swiss mouse assessed as weight loss at 50 mg/kg, ip qd for 4 days; format: organism-based; design: dose 50 mg/kg, route intraperitoneal; conditions: in vivo, 96 h

SMILES: Cn1c2nc3ccccc3c-2c(NCCCN2C(=O)c3ccccc3SC2c2ccc(Cl)cc2)c2ccccc21 (stereo unspecified)
- pIC50 (Plasmodium falciparum [1]): 7.67
- pIC50 (Trypanosoma cruzi): 5.63
- pIC50 (Plasmodium falciparum [2]): 7.58
- pIC50 (Leishmania donovani): 5.01
- pIC50 [3]: 6.06
- selectivity ratio [4]: 41.3
- selectivity ratio [5]: 51.6
- IC50 at 72 h [6]: 1100 nM

SMILES: Cn1c2nc3ccccc3c-2c(Cl)c2ccccc21 [11-CHLORONEOCRYPTOLEPINE]
- pIC50 (Plasmodium falciparum [1]): 5.70
- pIC50 (Plasmodium falciparum [2]): 5.69
- selectivity ratio [4]: 0.7
- selectivity ratio [5]: 0.7
- IC50 at 72 h [6]: 1460 nM

SMILES: Cn1c2nc3ccccc3c-2c(NCCCNS(=O)(=O)c2ccccc2)c2ccccc21
- pIC50 (Plasmodium falciparum [1]): 6.91
- pIC50 (Trypanosoma cruzi): 5.80
- pIC50 (Plasmodium falciparum [2]): 7.20
- pIC50 (Leishmania donovani): 4.24
- pIC50 [3]: 6.78
- selectivity ratio [4]: 1
- selectivity ratio [5]: 0.5
- IC50 at 72 h [6]: 65.2 nM

SMILES: Cn1c2nc3ccccc3c-2c(NCCCNC(=O)c2cccs2)c2ccccc21
- pIC50 (Plasmodium falciparum [2]): 6.59
- selectivity ratio [4]: 17.3
- IC50 at 72 h [6]: 4460 nM

SMILES: CN(C)c1ccc(C2SCC(=O)N2CCCNc2c3c4ccccc4nc-3n(C)c3ccccc23)cc1 (stereo unspecified)
- pIC50 (Plasmodium falciparum [1]): 6.84
- pIC50 (Trypanosoma cruzi): 5.56
- pIC50 (Plasmodium falciparum [2]): 7.26
- pIC50 (Leishmania donovani): 4.58
- pIC50 [3]: 5.86
- selectivity ratio [4]: 64.7
- selectivity ratio [5]: 24.8
- IC50 at 72 h [6]: 3550 nM

SMILES: Cn1c2nc3ccccc3c-2c(NCCCNC(=O)Nc2ccccc2)c2cc(Cl)ccc21
- pIC50 (Plasmodium falciparum [1]): 7.66
- pIC50 (Plasmodium falciparum [2]): 8.66
- Activity (Plasmodium berghei): inactive
- Activity (Mus musculus): Toxic
- selectivity ratio [4]: 1400
- selectivity ratio [5]: 141
- IC50 at 72 h [6]: 3080 nM

SMILES: Cn1c2nc3ccccc3c-2c(NCCCCCCN)c2ccccc21
- pIC50 (Plasmodium falciparum [2]): 7.01
- selectivity ratio [4]: 7.1
- IC50 at 72 h [6]: 693 nM

SMILES: Cn1c2nc3ccccc3c-2c(NCCCN)c2cc(F)ccc21
- pIC50 (Plasmodium falciparum [2]): 7.30
- selectivity ratio [4]: 6.8
- IC50 at 72 h [6]: 338 nM

SMILES: Cn1c2nc3ccccc3c-2c(NCCCNC(=S)Nc2ccccc2)c2ccccc21
- pIC50 (Plasmodium falciparum [1]): 6.95
- pIC50 (Trypanosoma cruzi): 5.21
- pIC50 (Plasmodium falciparum [2]): 8.04
- pIC50 (Leishmania donovani): 4.10
- pIC50 [3]: 6.23
- Activity (Plasmodium berghei; route intraperitoneal): 15.4%
- Activity (Mus musculus): Toxic
- selectivity ratio [4]: 135
- selectivity ratio [5]: 11
- IC50 at 72 h [6]: 1230 nM

SMILES: Cn1c2nc3ccccc3c-2c(NCCCN)c2cc(C(F)(F)F)ccc21
- pIC50 (Plasmodium falciparum [2]): 7.97
- selectivity ratio [4]: 86.3
- IC50 at 72 h [6]: 924 nM

SMILES: Cn1c2nc3ccccc3c-2c(NCCCNC(=O)Nc2ccccc2)c2cc(Br)ccc21
- pIC50 (Plasmodium falciparum [1]): 7.92
- pIC50 (Plasmodium falciparum [2]): 8.40
- selectivity ratio [4]: 706
- selectivity ratio [5]: 238
- IC50 at 72 h [6]: 2830 nM

SMILES: CCCCCCCCCCCCCCCCOP(=O)([O-])OCC[N+](C)(C)C [MILTEFOSINE]
- pIC50 (Leishmania donovani): 6.44

SMILES: Cn1c2nc3ccccc3c-2c(NCCCN2C(=O)CCSC2c2ccc(Cl)cc2)c2ccccc21 (stereo unspecified)
- pIC50 (Plasmodium falciparum [1]): 7.41
- pIC50 (Trypanosoma cruzi): 5.50
- pIC50 (Plasmodium falciparum [2]): 7.28
- pIC50 (Leishmania donovani): 4.89
- pIC50 [3]: 6.26
- selectivity ratio [4]: 64.1
- selectivity ratio [5]: 86.6
- IC50 at 72 h [6]: 3360 nM

SMILES: Cn1c2nc3ccccc3c-2c(NCCCCCCNC(=O)Nc2ccccc2)c2ccccc21
- pIC50 (Plasmodium falciparum [2]): 7.59
- selectivity ratio [4]: 15.4
- IC50 at 72 h [6]: 397 nM

SMILES: Cn1c2nc3ccccc3c-2c(NCCCNC(=O)Nc2ccccc2)c2cc(F)ccc21
- pIC50 (Plasmodium falciparum [1]): 6.51
- pIC50 (Plasmodium falciparum [2]): 7.60
- selectivity ratio [4]: 143
- selectivity ratio [5]: 11.4
- IC50 at 72 h [6]: 3560 nM

SMILES: Cn1c2nc3ccccc3c-2c(NCCCNC(=O)Nc2ccccc2)c2cc(C(F)(F)F)ccc21
- pIC50 (Plasmodium falciparum [1]): 7.31
- pIC50 (Plasmodium falciparum [2]): 8.39
- selectivity ratio [4]: 313
- selectivity ratio [5]: 26.3
- IC50 at 72 h [6]: 1280 nM

SMILES: Cn1c2nc3ccccc3c-2c(NCCCN2C(=O)CSC2c2ccc(Cl)cc2)c2ccccc21 (stereo unspecified)
- pIC50 (Plasmodium falciparum [1]): 6.84
- pIC50 (Plasmodium falciparum [2]): 7.19
- selectivity ratio [4]: 54.4
- selectivity ratio [5]: 24.2
- IC50 at 72 h [6]: 3470 nM

SMILES: Cn1c2nc3ccccc3c-2c(NCCCNS(=O)(=O)c2ccc3ccccc3c2)c2ccccc21
- pIC50 (Plasmodium falciparum [2]): 7.85
- selectivity ratio [4]: 1.3
- IC50 at 72 h [6]: 18.2 nM

SMILES: Cn1c2nc3ccccc3c-2cc2ccccc21 [NEOCRYPTOLEPINE]
- pIC50 (Plasmodium falciparum [1]): 5.77
- pIC50 (Plasmodium falciparum [2]): 5.80
- selectivity ratio [4]: 2
- selectivity ratio [5]: 1.9
- IC50 at 72 h [6]: 3190 nM

SMILES: Cn1c2nc3ccccc3c-2c(NCCCN)c2ccccc21
- pIC50 (Plasmodium falciparum [1]): 7.53
- pIC50 (Plasmodium falciparum [2]): 7.10
- selectivity ratio [4]: 3.5
- selectivity ratio [5]: 9.4
- IC50 at 72 h [6]: 279 nM

SMILES: CCCCNC(=O)NCCCNc1c2c3ccccc3nc-2n(C)c2ccccc12
- pIC50 (Plasmodium falciparum [2]): 6.98
- selectivity ratio [4]: 16.7
- IC50 at 72 h [6]: 1740 nM

SMILES: Cn1c2nc3ccccc3c-2c(NCCCNC(=O)Nc2ccccc2)c2cc([N+](=O)[O-])ccc21
- pIC50 (Plasmodium falciparum [1]): 7.52
- pIC50 (Plasmodium falciparum [2]): 8.68
- selectivity ratio [4]: 1300
- selectivity ratio [5]: 91.4
- IC50 at 72 h [6]: 2730 nM

SMILES: Cn1c2nc3ccccc3c-2c(NCCCN)c2cc(Br)ccc21
- pIC50 (Plasmodium falciparum [2]): 7.98
- selectivity ratio [4]: 24.8
- IC50 at 72 h [6]: 258 nM

SMILES: O=C(Cn1ccnc1[N+](=O)[O-])NCc1ccccc1 [BENZNIDAZOLE]
- pIC50 (Trypanosoma cruzi): 5.79

SMILES: Cn1c2nc3ccccc3c-2c(NCCCN)c2cc([N+](=O)[O-])ccc21
- pIC50 (Plasmodium falciparum [2]): 7.94
- selectivity ratio [4]: 18.3
- IC50 at 72 h [6]: 209 nM

SMILES: COc1ccc2c(c1)c(NCCCN)c1c3ccccc3nc-1n2C
- pIC50 (Plasmodium falciparum [2]): 7.13
- selectivity ratio [4]: 5.1
- IC50 at 72 h [6]: 383 nM

SMILES: Cn1c2nc3ccccc3c-2c(NCCCNC(=O)Nc2ccccc2)c2ccccc21
- pIC50 (Plasmodium falciparum [1]): 8.03
- pIC50 (Trypanosoma cruzi): 4.97
- pIC50 (Plasmodium falciparum [2]): 7.67
- pIC50 (Leishmania donovani): 4.01
- pIC50 [3]: 6.22
- Activity (Plasmodium berghei; route intraperitoneal): 22.1%
- Activity (Mus musculus): Toxic
- selectivity ratio [4]: 58.4
- selectivity ratio [5]: 132
- IC50 at 72 h [6]: 1240 nM

SMILES: C[C@@H]1CC[C@H]2[C@@H](C)C(=O)O[C@@H]3O[C@@]4(C)CC[C@@H]1[C@]32OO4 [ARTEMISININ]
- pIC50 (Plasmodium falciparum [1]): 8.55
- pIC50 (Plasmodium falciparum [2]): 8.37

SMILES: COc1ccc2c(c1)c(NCCCNC(=O)Nc1ccccc1)c1c3ccccc3nc-1n2C
- pIC50 (Plasmodium falciparum [1]): 8.66
- pIC50 (Plasmodium falciparum [2]): 8.36
- selectivity ratio [4]: 621
- selectivity ratio [5]: 1240
- IC50 at 72 h [6]: 2730 nM

SMILES: Cn1c2nc3ccccc3c-2c(NCCCN)c2cc(Cl)ccc21
- pIC50 (Plasmodium falciparum [2]): 7.93
- selectivity ratio [4]: 22.8
- IC50 at 72 h [6]: 269 nM

SMILES: Cn1c2nc3ccccc3c-2c(NCCCN2C(=O)CCSC2c2ccc(F)cc2)c2ccccc21 (stereo unspecified)
- pIC50 (Plasmodium falciparum [1]): 6.95
- pIC50 (Plasmodium falciparum [2]): 7.42
- selectivity ratio [4]: 71.6
- selectivity ratio [5]: 24.3
- IC50 at 72 h [6]: 2730 nM
